Values quoted from earlier work as cited in US6090854A, “Aryloxyanilides and related compounds” (Bristol-Meyers Company, priority 1999, dated 2000).

Key:
circadian rhythms = conditions: exogenous melatonin, rats; Cassone et al. 1986

COc1ccc2[nH]cc(CCNC(C)=O)c2c1 [melatonin, N-acetyl-5-methoxytryptamine]
oral bioavailability: often low and variable | synchronization of circadian rhythms (circadian rhythms): found to synchronize circadian rhythms in rats
